How the values were obtained:
D2 receptor = D2 receptor (Homo sapiens (Human), UniProt P14416); experiment: Radioligand binding ([3H]-spiperone) to cloned D2 receptor expressed in HEK-293 EBNA cells; conditions: HEK293 EBNA membranes, 0.7 nM [3H]-spiperone
Method: (§1) HEK293 EBNA cells were transiently transfected with expression plasmids encoding for the human D2 or D3 or for the human 5-HT2A receptor, respectively. The cells were harvested 48 h post-transfection, washed three times with cold PBS and stored at −80° C. prior to use. The pellet was suspended in cold 50 mM Tris-HCl buffer containing 10 mM EDTA (pH 7.4) and was homogenized with a Polytron (Kinematica AG, Basel, Switzerland) for 20-30 sec at 12.000 rpm. After centrifugation at 48.000×g for 30 min at 4° C., the pellet was resuspended in cold 10 mM Tris-HCl buffer containing 0.1 mM EDTA (pH 7.4), homogenized, and centrifuged as above. This pellet was further resuspended in a smaller volume of ice cold 10 mM Tris-HCl buffer containing 0.1 mM EDTA (pH 7.4) and homogenized with a Polytron for 20-30 sec at 12.000 rpm. The protein content of this homogenate was determined with the Bio-Rad (Bradford) Protein Assay (Biorad Laboratories GmbH, München, Germany) according to the instructions of the manufacturer using gamma globulin as the standard. This homogenate was stored at −80° C. in aliquots and thawed immediately prior to use.
(§2) Radioligand Binding Assay
(§3) Aliquots of membrane preparations were thawed at RT, resupended in assay buffer (D2, D3: 50 mM Tris-HCl, 120 mM NaCl, 5 mM MgCl2, 1 mM EDTA, 5 mM KCl, 1.5 mM CaCl2, pH=7.4; 5-HT2A: 50 mM Tris-HCl, 10 mM MgCl2, 1 mM EGTA, pH=7.4), homogenized with a Polytron for 20-30 sec at 12.000 rpm and adjusted to a final concentration of approximately 7.5 μg protein/well (D2, D3) and 15 μg protein/well (5-HT2A), respectively.
The binding affinity (Ki) of the compounds was determined using radioligand binding. […] The nonspecific binding was determined with equally composed reaction mixtures in the presence of 10 μM unlabelled spiperone. Per well 45 μl of Microscint 40 (Perkin Elmer, Schwerzenbach, Switzerland) was added, plates for sealed, shaken for 20 min and counted for 3 min on a Topcount Microplate Scintillation Counter (Canberra Packard SA, Zürich, Switzerland) with quenching correction.
(§4) The CPM value for each duplicate of a concentration of competing compound was averaged (y1), then the % specific binding was calculated according to the equation (((y1−non-specific)/(total binding−non-specific))×100). Graphs were plotted with the % specific binding using XLfit, a curve fitting program that iteratively plots the data using Levenberg-Marquardt algorithm. The single site competition analysis equation used was y=A+((B−A)/(1+((x/C)D))), where y is the % specific binding, A is the minimum y, B is the maximum y, C is the IC50, x is the log 10 of the concentration of the competing compound and D is the slope of the curve (the Hill Coefficient). […] The affinity constant (Ki) was calculated using the Cheng-Prusoff equation Ki=(IC50/1+([L]/Kd), where [L] is the concentration of radioligand and Kd is the dissociation constant of the radioligand at the receptor as determined by the saturation isotherm.

D3 receptor = D3 receptor (Homo sapiens (Human), UniProt P35462); experiment: Radioligand binding ([3H]-spiperone) to cloned D3 receptor expressed in HEK-293 EBNA cells; conditions: HEK293 EBNA membranes, 0.5 nM [3H]-spiperone
Method: as §1, §2, §3
The binding affinity (Ki) of the compounds was determined using radioligand binding. […] At the end of the incubation, the reaction mixtures were filtered on to unifilter 96-well white microplates with bonded GF/C filters (Packard BioScience, Zürich, Switzerland; preincubated for 1 h in 0.1% polyethylenimine (PEI) in assay buffer) with a Filtermate 196 harvester (Packard BioScience) and washed 3 times with cold assay buffer. The nonspecific binding was determined with equally composed reaction mixtures in the presence of 10 μM unlabelled spiperone. Per well 45 μl of Microscint 40 (Perkin Elmer, Schwerzenbach, Switzerland) was added, plates for sealed, shaken for 20 min and counted for 3 min on a Topcount Microplate Scintillation Counter (Canberra Packard SA, Zürich, Switzerland) with quenching correction.
as §4

D2 receptor, sequence (P14416 whole entry): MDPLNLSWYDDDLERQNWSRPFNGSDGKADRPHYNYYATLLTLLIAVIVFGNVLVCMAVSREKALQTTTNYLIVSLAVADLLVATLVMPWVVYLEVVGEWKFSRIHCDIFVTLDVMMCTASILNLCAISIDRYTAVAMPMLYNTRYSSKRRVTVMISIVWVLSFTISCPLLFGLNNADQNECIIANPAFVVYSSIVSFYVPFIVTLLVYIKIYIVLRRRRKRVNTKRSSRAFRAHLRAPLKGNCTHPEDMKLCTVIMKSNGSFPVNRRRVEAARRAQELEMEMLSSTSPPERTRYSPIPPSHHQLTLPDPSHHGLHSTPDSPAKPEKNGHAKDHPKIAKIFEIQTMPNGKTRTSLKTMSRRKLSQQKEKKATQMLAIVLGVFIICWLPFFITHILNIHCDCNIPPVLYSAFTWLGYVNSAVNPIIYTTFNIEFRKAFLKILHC
D3 receptor, sequence (P35462 whole entry): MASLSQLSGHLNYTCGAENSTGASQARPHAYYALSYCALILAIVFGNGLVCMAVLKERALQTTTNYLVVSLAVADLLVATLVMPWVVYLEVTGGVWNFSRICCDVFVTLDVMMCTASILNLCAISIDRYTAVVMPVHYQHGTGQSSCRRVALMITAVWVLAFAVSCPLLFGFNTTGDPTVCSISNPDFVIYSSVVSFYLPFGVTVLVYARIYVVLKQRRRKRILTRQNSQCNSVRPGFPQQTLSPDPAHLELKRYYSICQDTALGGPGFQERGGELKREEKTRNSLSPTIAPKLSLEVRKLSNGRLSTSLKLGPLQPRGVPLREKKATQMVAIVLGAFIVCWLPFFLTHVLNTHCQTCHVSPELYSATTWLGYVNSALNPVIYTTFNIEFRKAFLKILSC

O=C(C[C@@H]1CCCCO1)N[C@H]1CC[C@H](CCN2CCN(c3cccc4c3OCO4)CC2)CC1 (single isomer, unassigned) [Example 30, Trans-N-{4-[2-(4-Benzo[1,3]dioxol-4-yl-piperazin-1-yl)-ethyl]-cyclohexyl}-2-(S) or (R)-tetrahydro-pyran-2-yl-acetamide]
Ki (D2 receptor): 220 nM

O=C(C[C@H]1CCCCO1)N[C@H]1CC[C@H](CCN2CCN(c3cccc4c3OCO4)CC2)CC1 (single isomer, unassigned) [Example 31, Trans-N-{4-[2-(4-Benzo[1,3]dioxol-4-yl-piperazin-1-yl)-ethyl]-cyclohexyl}-2-(R) or (S)-tetrahydro-pyran-2-yl-acetamide]
Ki (D2 receptor): 310 nM

COC(C)C(=O)N[C@H]1CC[C@H](CCN2CCN(c3cccc4c3OCO4)CC2)CC1 (stereo in doubt) [Example 25, Trans(S)—N-{4-[2-(4-Benzo[1,3]dioxol-4-yl-piperazin-1-yl)-ethyl]-cyclohexyl}-2-methoxy-propionamide]
Ki (D2 receptor): 250 nM | Ki (D3 receptor): 21.4 nM

COC(C)C(=O)N[C@H]1CC[C@H](CCN2CCN(c3cccc4c3OCO4)CC2)CC1 (stereo in doubt) [Example 26, Trans(R)—N-{4-[2-(4-Benzo[1,3]dioxol-4-yl-piperazin-1-yl)-ethyl]-cyclohexyl}-2-methoxy-propionamide]
Ki (D2 receptor): 150 nM | Ki (D3 receptor): 4.9 nM

CC(=O)N[C@H]1CC[C@H](CCN2CCN(c3cccc4c3OCO4)CC2)CC1 [Example 1, Trans-N-{4-[2-(4-Benzo[1,3]dioxol-4-yl-piperazin-1-yl)-ethyl]-cyclohexyl}-acetamide]
Ki (D2 receptor): 67.3 nM | Ki (D3 receptor): 1.15 nM

COCCC(=O)N[C@H]1CC[C@H](CCN2CCN(c3cccc4c3OCO4)CC2)CC1 [Example 2, Trans-N-{4-[2-(4-Benzo[1,3]dioxol-4-yl-piperazin-1-yl)-ethyl]-cyclohexyl}-3-methoxy-propionamide]
Ki (D2 receptor): 173 nM | Ki (D3 receptor): 1.88 nM

O=C(CC1CCCO1)N[C@H]1CC[C@H](CCN2CCN(c3cccc4c3OCO4)CC2)CC1 (stereo partly drawn) [Example 6, Trans-N-{4-[2-(4-Benzo[1,3]dioxol-4-yl-piperazin-1-yl)-ethyl]-cyclohexyl}-2-(tetrahydro-furan-2-yl)-acetamide]
Ki (D2 receptor): 189 nM | Ki (D3 receptor): 3.1 nM

CCC(=O)N[C@H]1CC[C@H](CCN2CCN(c3cccc4c3OCO4)CC2)CC1 [Example 7, Trans-N-{4-[2-(4-Benzo[1,3]dioxol-4-yl-piperazin-1-yl)-ethyl]-cyclohexyl}-propionamide]
Ki (D2 receptor): 74.5 nM | Ki (D3 receptor): 1.28 nM

O=C(CC1CC1)N[C@H]1CC[C@H](CCN2CCN(c3cccc4c3OCO4)CC2)CC1 [Example 8, Trans-N-{4-[2-(4-Benzo[1,3]dioxol-4-yl-piperazin-1-yl)-ethyl]-cyclohexyl}-2-cyclopropyl-acetamide]
Ki (D2 receptor): 142 nM | Ki (D3 receptor): 1.23 nM

COCC(=O)N[C@H]1CC[C@H](CCN2CCN(c3cccc4c3OCO4)CC2)CC1 [Example 9, Trans-N-{4-[2-(4-Benzo[1,3]dioxol-4-yl-piperazin-1-yl)-ethyl]-cyclohexyl}-2-methoxy-acetamide]
Ki (D2 receptor): 238 nM | Ki (D3 receptor): 4.37 nM

O=C(CO)N[C@H]1CC[C@H](CCN2CCN(c3cccc4c3OCO4)CC2)CC1 [Example 10, Trans-N-{4-[2-(4-Benzo[1,3]dioxol-4-yl-piperazin-1-yl)-ethyl]-cyclohexyl}-2-hydroxy-acetamide]
Ki (D2 receptor): 184 nM | Ki (D3 receptor): 1.69 nM

O=C(N[C@H]1CC[C@H](CCN2CCN(c3cccc4c3OCO4)CC2)CC1)c1ccccc1 [Example 11, Trans-N-{4-[2-(4-Benzo[1,3]dioxol-4-yl-piperazin-1-yl)-ethyl]-cyclohexyl}-benzamide]
Ki (D2 receptor): 269 nM | Ki (D3 receptor): 9.99 nM

COC(=O)N[C@H]1CC[C@H](CCN2CCN(c3cccc4c3OCO4)CC2)CC1 [Example 12, Trans-{4-[2-(4-Benzo[1,3]dioxol-4-yl-piperazin-1-yl)-ethyl]-cyclohexyl}-carbamic acid methyl ester]
Ki (D2 receptor): 68.5 nM | Ki (D3 receptor): 1.29 nM

Cc1cc(CC(=O)N[C@H]2CC[C@H](CCN3CCN(c4cccc5c4OCO5)CC3)CC2)on1 [Example 13, Trans-N-{4-[2-(4-Benzo[1,3]dioxol-4-yl-piperazin-1-yl)-ethyl]-cyclohexyl}-2-(3-methyl-isoxazol-5-yl)-acetamide]
Ki (D2 receptor): 314 nM | Ki (D3 receptor): 1.34 nM

N#CCC(=O)N[C@H]1CC[C@H](CCN2CCN(c3cccc4c3OCO4)CC2)CC1 [Example 14, Trans-N-{4-[2-(4-Benzo[1,3]dioxol-4-yl-piperazin-1-yl)-ethyl]-cyclohexyl}-2-cyano-acetamide]
Ki (D2 receptor): 76 nM | Ki (D3 receptor): 0.91 nM

O=C(CC1(O)CCCCC1)N[C@H]1CC[C@H](CCN2CCN(c3cccc4c3OCO4)CC2)CC1 [Example 15, Trans-N-{4-[2-(4-Benzo[1,3]dioxol-4-yl-piperazin-1-yl)-ethyl]-cyclohexyl}-2-(1-hydroxy-cyclohexyl)-acetamide]
Ki (D2 receptor): 160 nM | Ki (D3 receptor): 3.48 nM

O=C(CC(F)(F)F)N[C@H]1CC[C@H](CCN2CCN(c3cccc4c3OCO4)CC2)CC1 [Example 16, Trans-N-{4-[2-(4-Benzo[1,3]dioxol-4-yl-piperazin-1-yl)-ethyl]-cyclohexyl}-3,3,3-trifluoro-propionamide]
Ki (D2 receptor): 91.2 nM | Ki (D3 receptor): 1.57 nM

CC(C)C(=O)N[C@H]1CC[C@H](CCN2CCN(c3cccc4c3OCO4)CC2)CC1 [Example 17, Trans-N-{4-[2-(4-Benzo[1,3]dioxol-4-yl-piperazin-1-yl)-ethyl]-cyclohexyl}-isobutyramide]
Ki (D2 receptor): 137 nM | Ki (D3 receptor): 1.81 nM

CC(C)CC(=O)N[C@H]1CC[C@H](CCN2CCN(c3cccc4c3OCO4)CC2)CC1 [Example 18, Trans-N-{4-[2-(4-Benzo[1,3]dioxol-4-yl-piperazin-1-yl)-ethyl]-cyclohexyl}-3-methyl-butyramide]
Ki (D2 receptor): 133 nM | Ki (D3 receptor): 2.28 nM

O=C(N[C@H]1CC[C@H](CCN2CCN(c3cccc4c3OCO4)CC2)CC1)C1(O)CCC1 [Example 35, 1-Hydroxy-cyclobutanecarboxylic acid-trans-N-{4-[2-(4-benzo[1,3]dioxol-4-yl-piperazin-1-yl)-ethyl]-cyclohexyl}-amide]
Ki (D2 receptor): 84.9 nM

O=C(N[C@H]1CC[C@H](CCN2CCN(c3cccc4c3OCO4)CC2)CC1)C1CCCO1 (stereo partly drawn) [Example 44, Tetrahydro-furan-2-carboxylic acid-trans-N-{4-[2-(4-benzo[1,3]dioxol-4-yl-piperazin-1-yl)-ethyl]-cyclohexyl}-amide]
Ki (D2 receptor): 117 nM

CO[C@H]1CC[C@H](CC(=O)N[C@H]2CC[C@H](CCN3CCN(c4cccc5c4OCO5)CC3)CC2)CC1 [Example 56, Trans-N-{4-[2-(4-Benzo[1,3]dioxol-4-yl-piperazin-1-yl)-ethyl]-cyclohexyl}-2-(4-methoxy-cyclohexyl)-acetamide]
Ki (D3 receptor): 3.37 nM

O=S(=O)(N[C@H]1CC[C@H](CCN2CCN(c3cccc4c3OCO4)CC2)CC1)c1ccccc1 [Example 67, N-trans-{4-[2-(4-Benzo[1,3]dioxol-4-yl-piperazin-1-yl)-ethyl]-cyclohexyl}-benzenesulfonamide]
Ki (D3 receptor): 2.88 nM

Cn1cnc(S(=O)(=O)N[C@H]2CC[C@H](CCN3CCN(c4cccc5c4OCO5)CC3)CC2)c1 [Example 69, 1-Methyl-1H-imidazole-4-sulfonic acid-trans-N-{4-[2-(4-benzo[1,3]dioxol-4-yl-piperazin-1-yl)-ethyl]-cyclohexyl}-amide]
Ki (D3 receptor): 2.25 nM
